Laboratory results from paper PMC3509583, “Molecular Mechanisms of Pharmaceutical Drug Binding into Calsequestrin” (International Journal of Molecular Sciences, 2012).
Where two headings read alike, the source gives them in different places.

Tests used:
[1] = molecular target: T1, human cardiac calsequestrin (hCASQ2) (Homo sapiens, UniProt O14958); assay: Isothermal titration calorimetry (ITC) of drug binding to hCASQ2, with or without caffeine; conditions: hCASQ2, titration in the absence of caffeine (Supplemental Fig. 2); read-out: Dissociation constant (Kd)
T1 sequence (O14958 20-399): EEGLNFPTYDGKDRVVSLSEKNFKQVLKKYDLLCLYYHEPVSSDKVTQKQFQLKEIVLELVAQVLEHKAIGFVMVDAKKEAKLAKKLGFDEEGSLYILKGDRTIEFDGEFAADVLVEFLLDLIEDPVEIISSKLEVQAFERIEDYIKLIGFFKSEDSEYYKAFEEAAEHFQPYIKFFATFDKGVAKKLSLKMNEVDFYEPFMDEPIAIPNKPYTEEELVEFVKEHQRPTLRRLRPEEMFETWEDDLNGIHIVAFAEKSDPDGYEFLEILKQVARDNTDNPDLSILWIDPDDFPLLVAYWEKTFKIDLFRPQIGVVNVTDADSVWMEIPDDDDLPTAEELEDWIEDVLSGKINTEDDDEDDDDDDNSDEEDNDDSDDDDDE
Procedure: We performed ITC assays to check the predicted competition between the natural compounds (CAF, EGC, and EGCG) and tested synthetic drugs.
ITC experiments were conducted using a previous protocol, with slight modifications. The protein and drug concentrations were kept at 50 μM and 2 mM, respectively, while the CAF concentration was allowed to vary between 0 and 5 mM for different drugs. […] Origin software (Origin Lab Corp, Northampton, MA, USA) was used to fit the data to a one-site binding model via non-linear least squares regression.

[2] = molecular target: T1, human cardiac calsequestrin (hCASQ2); set-up: method as in PMID 20713040; conditions: cited from earlier work; for binding class based on ITC dissociation constants (Kd): hCASQ2, drugs grouped as strong, moderate or poor binders; for Kd: hCASQ2, ITC, previous studies, read-out: experimental dissociation constant (Kd)
[3] = tested on: SR microsomes; set-up: method as in PMID 16141311, PMID 15492117; conditions: concentration- and time-dependent; cited from earlier work

SMILES	Kd [1] [µM]	binding class based on ITC dissociation constants (Kd) [2]	Kd [2] [µM]	total SR microsomal Ca2+ content [3]
CSc1ccc2c(c1)N(CCC1CCCCN1C)c1ccccc1S2 (stereo not drawn) [thioridazine]	22	strong	–	–
COCCc1ccc(OCC(O)CNC(C)C)cc1 (stereo not drawn) [metoprolol]	–	poor	–	–
CNCCC=C1c2ccccc2CCc2ccccc21 [nortriptyline]	–	moderate	–	–
COc1ccc([C@@H]2Sc3ccccc3N(CCN(C)C)C(=O)[C@@H]2OC(C)=O)cc1 [diltiazem]	41	moderate	–	–
CCCNCC(O)COc1ccccc1C(=O)CCc1ccccc1 (stereo not drawn) [propafenone]	–	poor	–	–
COc1cccc2c1C(=O)c1c(O)c3c(c(O)c1C2=O)C[C@@](O)(C(C)=O)C[C@@H]3O[C@H]1C[C@H](N)[C@H](O)[C@H](C)O1 [daunomycin]	–	strong	20.3	–
COc1cccc2c1C(=O)c1c(O)c3c(c(O)c1C2=O)C[C@@](O)(C(=O)CO)C[C@@H]3O[C@H]1C[C@H](N)[C@H](O)[C@H](C)O1 [doxorubicin]	–	strong	14.4	–
CN1CCN(CCCN2c3ccccc3Sc3ccc(C(F)(F)F)cc32)CC1 [trifluoperazine]	36	strong	18.2	significantly reduce
CCOC(=O)C1=C(COCCN)NC(C)=C(C(=O)OC)C1c1ccccc1Cl (stereo not drawn) [amlodipine]	–	strong	20.4	–
CN(C)CCC=C1c2ccccc2CCc2ccccc21 [amitriptyline]	–	moderate	–	–
Clc1ccc(COC(Cn2ccnc2)c2ccc(Cl)cc2Cl)c(Cl)c1 (stereo not drawn) [miconazole]	–	poor	–	–
CC(C)NCC(O)c1ccc(O)c(O)c1 (stereo not drawn) [isoproterenol]	–	poor	–	–
CC(CN1c2ccccc2Sc2ccccc21)N(C)C (stereo not drawn) [promethazine]	–	moderate	–	–
CN(C)CCCN1c2ccccc2Sc2ccc(Cl)cc21 [chlorpromazine]	102	poor	–	–
CN[C@@H](C)[C@H](O)c1ccccc1 [ephedrine]	–	poor	–	–
